{
  "source": "patent US20080234197A1",
  "about": "“Method(s) of stabilizing and potentiating the actions and administration of brain-derived neurotrophic factor (BDNF)” (priority 2007, published 2008)",
  "origin": "cited, not measured here",
  "molecules": {"B1": {"name": "BDNF: brain-derived neurotrophic factor, a neurotrophin protein (protein, UniProt P23560 19-247, looked up)", "Neurotrophic factor BDNF …": "APMKEANIRGQGGLAYPGVRTHGTLESVNGPKAGSRGLTSLADTFEHVIEELLDEDQKVRPNEENNKDADLYTSRVMLSSQVPLEPPLLFLLEEYKNYLDAANMSMRVRRHSDPARRGELSVCDSISEWVTAADKKTAVDMSGGTVTVLEKVPVSKGQLKQYFYETKCNPMGYTKEGCRGIDKRHWNSQCRTTQSYVRALTMDSKKRIGWRFIRIDTSCVCTLTIKRGR"}},
  "key": {"[1]": {"system": "syntaxin 3", "details": "upon addition of fatty acid"}, "[2]": {"system": "glioma cells"}, "[3]": {"system": "spinal cord neurons"}, "[4]": {"system": "ARH explants", "details": "100 ng/ml for 72 hours, explants from neonatal mice, vs control"}, "[5]": {"system": "NPY and POMC neurons in the hypothalamus", "details": "ob/ob mice, after administration"}, "[6]": {"system": "db/db mice", "details": "once or twice per week (70 mg/kg/wk) for 3 weeks, vs control"}},
  "note": "Like-named read-outs stand apart in the source and are kept apart here.",
  "data": [
    {"molecule": "CCCCC/C=C\\C/C=C\\C/C=C\\C/C=C\\CCCC(=O)O", "note": "[AA, arachidonic acid]", "values": [
      {"measurement": "intrinsic tyrosine fluorescence of syntaxin 3", "setting": "[1]", "value": "marked changes"},
      {"measurement": "dopamine uptake", "setting": "[2]; 20-160 microM, pre-incubated 15-30 min", "value": "stimulated"},
      {"measurement": "dopamine uptake", "setting": "[2]; 160 microM, longer pre-exposures 45-60 min", "value": "inhibited"},
      {"measurement": "expression of BDNF", "setting": "[3]; 2-hour exposure, spinal cord neurons", "value": "markedly diminished"}
    ]},
    {"molecule": "CC/C=C\\C/C=C\\C/C=C\\CCCCCCCC(=O)O", "note": "[ALA, alpha-linolenic acid]", "values": [
      {"measurement": "intrinsic tyrosine fluorescence of syntaxin 3", "setting": "[1]", "value": "marked changes"}
    ]},
    {"molecule": "CCCCC/C=C\\C/C=C\\CCCCCCCC(=O)O", "note": "[LA, cis-linoleic acid]", "values": [
      {"measurement": "intrinsic tyrosine fluorescence of syntaxin 3", "setting": "[1]", "value": "marked changes"}
    ]},
    {"molecule": "CN1CCCC1c1cccnc1", "note": "(centres unmarked) [nicotine]", "values": [
      {"measurement": "protection against arachidonic acid-induced apoptosis of spinal cord neurons", "setting": "[3]", "value": "fully protected"},
      {"measurement": "prevention of arachidonic acid-induced decrease of BDNF expression", "setting": "[3]; pretreatment with 10-microM", "value": "fully prevented"}
    ]},
    {"molecule": "CCCCCCCC/C=C\\CCCCCCCC(=O)O", "note": "[oleic acid]", "values": [
      {"measurement": "intrinsic tyrosine fluorescence of syntaxin 3", "setting": "[1]", "value": "ineffective"}
    ]},
    {"molecule": "leptin: adiposity hormone produced by the white adipose tissue", "values": [
      {"measurement": "induction of neurites from ARH explants", "setting": "[4]", "value": "significant induction of neurites"},
      {"measurement": "time to normalization of synaptic density", "setting": "[5]", "value": "≤ 6", "unit": "h"}
    ]},
    {"molecule": "B1", "values": [
      {"measurement": "blood glucose concentrations", "setting": "[6]", "value": "significantly reduced"},
      {"measurement": "hemoglobin A1c (HbA1c)", "setting": "[6]", "value": "significantly reduced"},
      {"measurement": "protection against arachidonic acid-induced apoptosis of spinal cord neurons", "setting": "[3]", "value": "fully protected"}
    ]}
  ]
}
